Laboratory results from US20020026053A1, “Novel 3-(substituted) -2- indolinones compounds and use thereof as inhibitors of protein kinase activity” (priority 1997, published 2002).

System: FLK-1 receptor
Experiment: FLK-1 Assay (cellular/catalytic ELISA, VEGF-stimulated phosphotyrosine)
Type: cell-based
Parameters: concentration or dose not given beside the values
In short: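 NIH3T3 C7#3 cells engineered to express Flk-1 were serum-starved overnight (0.1% FBS), then exposed to compound for 2 h at 37 °C (final dilution 1:200, 0.5% DMSO) before VEGF stimulation. Lysates captured on anti-FLK-1 antiserum plates; phosphotyrosine detected by UB40 antibody/POD-ABTS ELISA versus untreated controls.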

| SMILES | Flk Kinase % Inhibition (P.110) [%] |
| --- | --- |
| O=C1Nc2ccc(S(=O)(=O)Nc3ccc(C(F)(F)F)cc3)cc2C1=Cc1cc(Cl)ccc1O [10734/E04] | 10.7 |
| CNS(=O)(=O)c1ccc2c(c1)C(=Cc1ccc(C(C)(C)C)cc1)C(=O)N2 [10734/D10] | 11.1 |
